Results from ChEMBL document CHEMBL1201862, “PubChem BioAssay data set” (2004).
Active and inactive are the calls of the source.

Key:
[1] = biological target: Kappa-type opioid receptor (Homo sapiens, UniProt P41145); test: SAR analysis of small molecule agonists of the kappa opioid receptor via a luminescent beta-arrestin assay - Set 3. [Related pubchem assays (depositor defined):AID1777, AID1785, AID1786, AID1966, AID2133, AID2136, AID2284, AID2500]; format: functional
Exodeoxyribonuclease V = biological target: T1, Exodeoxyribonuclease V (Escherichia coli (strain K12), UniProt P04993+P07648+P08394); test: E. coli RecBCD inhibitors, dose response, counter-screen for AddAB inhibitor project, absorbance, V66 E. coli, mutant T4 phage (AID 492957); format: functional, cell-based, Escherichia coli str. K-12 substr. MG1655
T1 sequence (P04993 whole entry): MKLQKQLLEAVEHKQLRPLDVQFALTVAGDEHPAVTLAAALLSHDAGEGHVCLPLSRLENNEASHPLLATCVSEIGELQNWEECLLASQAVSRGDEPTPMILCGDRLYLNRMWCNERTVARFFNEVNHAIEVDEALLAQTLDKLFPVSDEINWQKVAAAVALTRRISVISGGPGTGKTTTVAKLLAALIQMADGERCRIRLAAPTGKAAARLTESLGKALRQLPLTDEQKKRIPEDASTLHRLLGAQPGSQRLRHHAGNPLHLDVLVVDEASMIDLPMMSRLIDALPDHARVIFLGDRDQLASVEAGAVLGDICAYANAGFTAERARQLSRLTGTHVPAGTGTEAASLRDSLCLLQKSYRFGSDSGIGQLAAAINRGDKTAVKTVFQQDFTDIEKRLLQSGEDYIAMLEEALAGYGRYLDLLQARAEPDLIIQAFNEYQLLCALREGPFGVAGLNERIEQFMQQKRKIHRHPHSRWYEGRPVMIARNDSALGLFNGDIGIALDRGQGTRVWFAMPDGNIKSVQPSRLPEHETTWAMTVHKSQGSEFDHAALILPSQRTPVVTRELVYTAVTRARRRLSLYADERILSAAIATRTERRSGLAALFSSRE
T1 sequence (P07648 whole entry): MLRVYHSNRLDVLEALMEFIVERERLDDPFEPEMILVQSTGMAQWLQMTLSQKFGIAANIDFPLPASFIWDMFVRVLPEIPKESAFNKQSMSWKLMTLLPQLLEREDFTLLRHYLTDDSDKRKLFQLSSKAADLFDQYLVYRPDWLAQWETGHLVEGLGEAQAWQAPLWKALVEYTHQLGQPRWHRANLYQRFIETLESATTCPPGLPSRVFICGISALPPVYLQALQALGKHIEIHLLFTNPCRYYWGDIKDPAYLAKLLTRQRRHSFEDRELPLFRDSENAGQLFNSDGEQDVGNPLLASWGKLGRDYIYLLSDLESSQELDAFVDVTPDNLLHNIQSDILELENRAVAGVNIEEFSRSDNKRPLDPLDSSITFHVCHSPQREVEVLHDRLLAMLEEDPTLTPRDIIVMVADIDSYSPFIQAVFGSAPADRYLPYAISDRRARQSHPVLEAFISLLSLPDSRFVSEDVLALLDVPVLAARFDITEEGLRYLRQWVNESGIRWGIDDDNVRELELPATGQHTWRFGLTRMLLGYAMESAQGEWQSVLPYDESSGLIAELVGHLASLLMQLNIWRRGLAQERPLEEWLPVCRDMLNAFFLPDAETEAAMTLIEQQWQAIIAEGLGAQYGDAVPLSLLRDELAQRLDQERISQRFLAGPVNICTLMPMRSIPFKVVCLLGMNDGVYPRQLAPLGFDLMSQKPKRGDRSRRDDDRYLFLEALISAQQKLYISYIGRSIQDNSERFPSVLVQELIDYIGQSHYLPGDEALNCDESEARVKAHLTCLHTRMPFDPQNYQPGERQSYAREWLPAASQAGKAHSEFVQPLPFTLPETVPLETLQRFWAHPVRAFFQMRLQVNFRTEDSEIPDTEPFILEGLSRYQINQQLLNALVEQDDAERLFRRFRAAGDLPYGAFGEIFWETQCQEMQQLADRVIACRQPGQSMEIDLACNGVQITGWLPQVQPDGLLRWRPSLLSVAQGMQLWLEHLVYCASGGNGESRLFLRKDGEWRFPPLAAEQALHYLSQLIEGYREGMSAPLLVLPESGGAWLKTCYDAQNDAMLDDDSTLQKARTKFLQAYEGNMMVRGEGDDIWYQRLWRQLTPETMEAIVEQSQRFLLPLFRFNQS
T1 sequence (P08394 whole entry): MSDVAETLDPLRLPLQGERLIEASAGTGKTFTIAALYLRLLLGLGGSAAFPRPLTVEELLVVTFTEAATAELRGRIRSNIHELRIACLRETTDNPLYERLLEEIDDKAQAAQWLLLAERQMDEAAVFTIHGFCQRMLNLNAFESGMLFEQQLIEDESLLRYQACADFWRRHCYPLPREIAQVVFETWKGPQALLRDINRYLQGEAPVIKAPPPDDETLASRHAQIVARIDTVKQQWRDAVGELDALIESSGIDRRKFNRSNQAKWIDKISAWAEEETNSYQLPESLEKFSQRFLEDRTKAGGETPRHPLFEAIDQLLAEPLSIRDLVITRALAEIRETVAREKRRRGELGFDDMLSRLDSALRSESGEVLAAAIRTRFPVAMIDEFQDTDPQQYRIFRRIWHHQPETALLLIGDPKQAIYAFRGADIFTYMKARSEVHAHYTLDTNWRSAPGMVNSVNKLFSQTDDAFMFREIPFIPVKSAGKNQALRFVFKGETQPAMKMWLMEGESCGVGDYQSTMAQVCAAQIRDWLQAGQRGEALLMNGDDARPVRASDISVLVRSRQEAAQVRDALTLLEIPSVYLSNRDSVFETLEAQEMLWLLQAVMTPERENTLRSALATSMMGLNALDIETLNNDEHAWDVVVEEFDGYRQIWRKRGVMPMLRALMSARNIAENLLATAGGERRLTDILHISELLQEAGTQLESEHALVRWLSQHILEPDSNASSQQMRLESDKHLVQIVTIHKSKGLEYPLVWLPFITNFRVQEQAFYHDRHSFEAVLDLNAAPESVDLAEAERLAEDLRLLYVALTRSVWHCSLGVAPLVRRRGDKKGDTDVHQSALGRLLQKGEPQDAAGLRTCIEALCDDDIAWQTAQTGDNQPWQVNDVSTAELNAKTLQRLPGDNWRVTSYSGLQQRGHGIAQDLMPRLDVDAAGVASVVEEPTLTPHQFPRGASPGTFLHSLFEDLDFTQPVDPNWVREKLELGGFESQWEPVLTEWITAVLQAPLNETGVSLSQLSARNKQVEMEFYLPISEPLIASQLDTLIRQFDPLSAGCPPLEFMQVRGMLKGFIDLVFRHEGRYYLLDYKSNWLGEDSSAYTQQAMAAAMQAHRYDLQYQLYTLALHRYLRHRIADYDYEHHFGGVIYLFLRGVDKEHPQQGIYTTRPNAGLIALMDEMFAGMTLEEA

[2] = THP-1 cell cytotoxicity, dose response, cytotoxicity control for non-replicating M. tuberculosis project (AID 489025); format: functional
[3] = HepG2 cell cytotoxicity, dose response, cytotoxicity control for non-replicating M. tuberculosis project (AID 489018); format: functional; conditions: Mycobacterium tuberculosis
[4] = Vero E6 cell cytotoxicity, dose response, cytotoxicity control for non-replicating M. tuberculosis project, secondary assay (AID 492998); format: functional, VeroE6; conditions: Vero C1008
[5] = Counterscreen for AddAB inhibitors: absorbance-based bacterial cell-based high throughput dose response assay for inhibitors of bacterial viability. [Related pubchem assays (depositor defined):AID435030, AID449728, AID449731, AID488942, AID488955, AID488956]; format: functional
[6] = biological target: T2, Microphthalmia-associated transcription factor (Homo sapiens, UniProt O75030); test: TRPM1 promoter luciferase signal decrease, dose response, MITF inhibitor project, cell-based, SK-MEL-5, cherry-picked, set 3 (AID 493073); format: functional
T2 sequence (O75030 whole entry): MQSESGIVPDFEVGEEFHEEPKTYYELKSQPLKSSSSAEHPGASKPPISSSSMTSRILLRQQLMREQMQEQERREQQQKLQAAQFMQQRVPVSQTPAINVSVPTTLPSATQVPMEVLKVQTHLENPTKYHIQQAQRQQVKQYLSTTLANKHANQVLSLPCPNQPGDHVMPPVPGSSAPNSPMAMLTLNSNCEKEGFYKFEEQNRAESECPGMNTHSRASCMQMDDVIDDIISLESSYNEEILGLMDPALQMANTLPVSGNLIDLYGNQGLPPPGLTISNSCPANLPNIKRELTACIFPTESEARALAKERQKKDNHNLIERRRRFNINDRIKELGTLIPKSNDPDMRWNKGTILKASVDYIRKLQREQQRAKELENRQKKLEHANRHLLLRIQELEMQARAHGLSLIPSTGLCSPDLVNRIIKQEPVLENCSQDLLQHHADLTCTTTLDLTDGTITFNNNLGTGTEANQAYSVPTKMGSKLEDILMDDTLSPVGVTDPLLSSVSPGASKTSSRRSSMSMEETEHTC

cells = format: functional
Paired box protein Pax-8 = Paired box protein Pax-8 (Homo sapiens, UniProt Q06710); test: inhibitors of PAX8-driven TPO luciferase reporter, dose response, RMG-I cells, cherry-pick (AID 687027); format: functional, cell-based;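 also: luciferase reporter driven by Pax8 target thyroperoxidase promoter measured by SteadyGlo luminescence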
Troponin, cardiac muscle = Troponin, cardiac muscle (Homo sapiens, UniProt P19429+P45379+P63316); test: Fluorescence-based biochemical high throughput dose response assay for activators of the calcium sensitivity of cardiac Regulated Thin Filaments (RTF). [Related pubchem assays (depositor defined):AID493008, AID493018, AID504382, AID504383]; format: protein-complex assay
[7] = biological target: Glyceraldehyde-3-phosphate dehydrogenase (Homo sapiens, UniProt P04406)
[8] = biological target: Alkaline phosphatase, placental type (Homo sapiens, UniProt P05187); test: PLAP enzyme inhibitors, confirmation, biochemical, luminescence (AID 1512); format: functional
[9] = biological target: T3, Alkaline phosphatase, tissue-nonspecific isozyme (Homo sapiens, UniProt P05186); test: human TNAP enzyme inhibitors, SAR follow-up, biochemical, luminescent, dose response (AID 1056)
T3 sequence (P05186 whole entry): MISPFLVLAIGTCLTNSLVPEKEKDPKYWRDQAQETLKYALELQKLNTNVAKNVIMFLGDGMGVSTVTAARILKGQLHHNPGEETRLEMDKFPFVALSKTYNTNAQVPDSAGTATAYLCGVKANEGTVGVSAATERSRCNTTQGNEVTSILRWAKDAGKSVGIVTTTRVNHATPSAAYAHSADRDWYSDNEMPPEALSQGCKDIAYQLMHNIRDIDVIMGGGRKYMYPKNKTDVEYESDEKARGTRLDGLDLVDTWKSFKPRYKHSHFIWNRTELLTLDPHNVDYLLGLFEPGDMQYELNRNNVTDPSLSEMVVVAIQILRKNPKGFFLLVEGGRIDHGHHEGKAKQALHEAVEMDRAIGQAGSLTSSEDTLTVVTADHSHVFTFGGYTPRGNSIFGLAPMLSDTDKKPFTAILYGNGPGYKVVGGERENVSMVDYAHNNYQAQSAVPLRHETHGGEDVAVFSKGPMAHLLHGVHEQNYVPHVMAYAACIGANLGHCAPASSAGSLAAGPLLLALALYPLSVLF

[10] = biological target: DNA dC->dU-editing enzyme APOBEC-3A (Homo sapiens, UniProt P31941); test: APOBEC3A DNA deaminase inhibitors, dose response, biochemical (AID 504722); format: functional
[11] = biological target: DNA dC->dU-editing enzyme APOBEC-3G (Homo sapiens, UniProt Q9HC16); test: Dose Response confirmation of small molecule APOBEC3G DNA Deaminase Inhibitors via a fluorescence-based single-stranded DNA deaminase assay. [Related pubchem assays (depositor defined):AID493012, AID493028]; format: functional
[12] = human group III sPLA2 inhibitors, dose response, biochemical, QFRET, IC50 (AID 743457);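 also: green fluorescence rise as the enzyme cleaves BODIPY PC-A2 in liposomes; potency for inhibition of the enzyme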
[13] = inhibitors of intracellular T. cruzi replication, confirmation, NIH3T3 host cells, beta-gal luminescence (AID 2044); format: functional, cell-based;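 also: intracellular parasites grown in NIH/3T3 mouse fibroblasts as host cells; luminescent beta-galactosidase reporter signal from transgenic T. cruzi replicating inside host cells; inhibitors lower the luminescence signal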
[14] = cytotoxicity toward NIH3T3 fibroblasts, dose response, counter-screen, cell-based, ATP luminescence, mouse fibroblasts (AID 2010); format: functional;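 also: cells exposed to compound for about 90 hours before reading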
[15] = biological target: T4, G-protein coupled receptor 55 (Homo sapiens, UniProt Q9Y2T6); test: GPR55 antagonists blocking LPI-driven arrestin recruitment, primary screen, imaging, U2OS, beta-arrestin-GFP, LPI agonist (AID 2013); format: functional;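 also: antagonist potency measured as reduced agonist-driven arrestin aggregation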
[16] = biological target: T4, G-protein coupled receptor 55; test: GPR55 agonists via beta-arrestin recruitment, primary screen, imaging, U2OS cells, beta-arrestin-GFP redistribution (AID 1961); format: functional

Chain of DNA dC->dU-editing enzyme APOBEC-3G (Q9HC16 whole entry): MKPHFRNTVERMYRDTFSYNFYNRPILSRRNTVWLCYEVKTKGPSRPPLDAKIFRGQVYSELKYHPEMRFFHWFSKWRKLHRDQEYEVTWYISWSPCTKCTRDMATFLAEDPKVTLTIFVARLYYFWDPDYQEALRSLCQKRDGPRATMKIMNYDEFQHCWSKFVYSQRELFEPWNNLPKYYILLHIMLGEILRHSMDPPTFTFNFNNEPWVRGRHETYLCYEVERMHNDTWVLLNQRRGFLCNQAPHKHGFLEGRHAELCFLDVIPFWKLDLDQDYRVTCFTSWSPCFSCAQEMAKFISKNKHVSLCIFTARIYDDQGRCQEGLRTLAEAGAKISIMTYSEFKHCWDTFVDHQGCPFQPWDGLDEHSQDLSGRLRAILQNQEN
Chain of Alkaline phosphatase, placental type (P05187 whole entry): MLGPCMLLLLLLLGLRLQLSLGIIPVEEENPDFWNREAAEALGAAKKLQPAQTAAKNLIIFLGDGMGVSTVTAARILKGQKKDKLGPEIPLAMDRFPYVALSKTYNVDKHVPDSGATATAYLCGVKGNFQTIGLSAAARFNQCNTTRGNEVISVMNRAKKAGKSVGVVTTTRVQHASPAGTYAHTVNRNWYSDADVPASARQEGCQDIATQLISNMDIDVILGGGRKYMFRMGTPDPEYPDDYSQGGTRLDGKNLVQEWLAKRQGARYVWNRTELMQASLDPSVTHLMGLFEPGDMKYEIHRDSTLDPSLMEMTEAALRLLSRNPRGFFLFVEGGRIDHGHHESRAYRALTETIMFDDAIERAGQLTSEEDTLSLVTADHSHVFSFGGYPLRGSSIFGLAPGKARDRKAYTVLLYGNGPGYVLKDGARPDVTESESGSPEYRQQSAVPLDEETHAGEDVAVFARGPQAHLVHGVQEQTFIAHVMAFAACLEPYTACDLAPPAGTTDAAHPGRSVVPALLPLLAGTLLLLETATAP
Chain of DNA dC->dU-editing enzyme APOBEC-3A (P31941 whole entry): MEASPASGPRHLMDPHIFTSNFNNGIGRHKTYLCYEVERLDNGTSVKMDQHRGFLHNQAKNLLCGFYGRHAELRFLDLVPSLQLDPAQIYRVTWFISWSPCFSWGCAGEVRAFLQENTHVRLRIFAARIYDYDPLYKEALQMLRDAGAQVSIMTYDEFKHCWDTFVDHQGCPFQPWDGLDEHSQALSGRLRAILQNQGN
T4 sequence (Q9Y2T6 whole entry): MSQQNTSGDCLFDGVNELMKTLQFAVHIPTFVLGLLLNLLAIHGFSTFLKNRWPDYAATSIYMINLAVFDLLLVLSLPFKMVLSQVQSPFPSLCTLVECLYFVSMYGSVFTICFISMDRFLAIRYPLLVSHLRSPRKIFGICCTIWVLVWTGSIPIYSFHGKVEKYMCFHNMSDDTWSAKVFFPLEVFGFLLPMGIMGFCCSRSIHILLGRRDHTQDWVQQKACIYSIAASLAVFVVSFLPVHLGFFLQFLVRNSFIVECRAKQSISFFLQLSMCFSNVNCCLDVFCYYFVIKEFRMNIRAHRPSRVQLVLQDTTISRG
Chain of Paired box protein Pax-8 (Q06710 whole entry): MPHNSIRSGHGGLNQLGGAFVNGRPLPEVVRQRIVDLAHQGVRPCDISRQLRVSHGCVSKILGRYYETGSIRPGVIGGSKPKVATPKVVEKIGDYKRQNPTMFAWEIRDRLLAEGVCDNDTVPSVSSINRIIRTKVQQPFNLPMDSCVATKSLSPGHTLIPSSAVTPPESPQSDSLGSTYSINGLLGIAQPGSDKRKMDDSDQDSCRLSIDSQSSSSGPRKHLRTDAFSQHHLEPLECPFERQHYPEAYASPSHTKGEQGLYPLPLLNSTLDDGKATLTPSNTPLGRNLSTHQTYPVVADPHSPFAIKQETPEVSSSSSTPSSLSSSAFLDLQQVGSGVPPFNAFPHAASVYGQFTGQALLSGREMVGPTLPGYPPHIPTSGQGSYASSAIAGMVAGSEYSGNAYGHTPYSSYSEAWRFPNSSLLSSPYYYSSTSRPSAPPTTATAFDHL
Chain of Glyceraldehyde-3-phosphate dehydrogenase (P04406 whole entry): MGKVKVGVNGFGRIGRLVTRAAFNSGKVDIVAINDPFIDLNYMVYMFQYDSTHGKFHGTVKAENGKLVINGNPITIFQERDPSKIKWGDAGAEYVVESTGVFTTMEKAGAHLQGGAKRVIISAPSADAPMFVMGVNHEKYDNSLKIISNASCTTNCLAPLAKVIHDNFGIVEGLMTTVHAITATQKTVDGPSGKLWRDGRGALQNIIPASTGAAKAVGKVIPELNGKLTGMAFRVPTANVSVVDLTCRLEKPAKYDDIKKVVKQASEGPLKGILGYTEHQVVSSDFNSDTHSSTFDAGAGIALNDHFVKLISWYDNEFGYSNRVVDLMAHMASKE
Chain of Kappa-type opioid receptor (P41145 whole entry): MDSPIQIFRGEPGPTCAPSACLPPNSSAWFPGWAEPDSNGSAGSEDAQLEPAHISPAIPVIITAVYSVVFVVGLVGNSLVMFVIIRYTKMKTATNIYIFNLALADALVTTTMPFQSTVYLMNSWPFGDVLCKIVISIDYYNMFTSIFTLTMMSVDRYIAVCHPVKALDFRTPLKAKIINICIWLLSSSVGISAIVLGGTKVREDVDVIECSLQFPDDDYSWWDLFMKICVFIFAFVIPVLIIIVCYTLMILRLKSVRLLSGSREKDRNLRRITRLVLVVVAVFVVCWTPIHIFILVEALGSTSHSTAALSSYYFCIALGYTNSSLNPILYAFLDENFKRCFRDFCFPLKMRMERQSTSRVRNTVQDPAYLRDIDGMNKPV

With Clc1ccccc1Cn1c(SCc2ccc(Br)cc2)nnc1-c1ccccn1 the EC50 [1] was 14.2 µM (inactive).

In the case of CC(C)C(=O)N1CCN(c2ccc(NC(=O)c3ccc([N+](=O)[O-])o3)cc2)CC1, the IC50 (Exodeoxyribonuclease V) was > 119 µM (inactive), the CC50 [2] was 5.52 µM (active) and the CC50 [3] was 9.53 µM (active). For the same molecule, the CC50 [4] was 3.34 µM (active), the IC50 [5] was > 119 µM (inactive) and the AC50 [6] was 7.98 µM (active). The IC50 (cells) was 0.54 µM (active) and the AC50 (Paired box protein Pax-8) was 4.48 µM (active).

With CCCNC(=O)Cn1c(=O)/c(=C\c2ccc(-c3ccc([N+](=O)[O-])cc3)o2)s/c1=C\C(=O)C(C)(C)C the EC50 (Troponin, cardiac muscle) was 0.165 µM (active).

In the case of Nc1nc(Cc2ccc3ccccc3c2)n(-c2ccccc2)n1, the IC50 [7] was > 100 µM (not active), the IC50 [8] was > 100 µM (inactive) and the IC50 [9] was > 100 µM (inactive).

With Sc1nccn1-c1ccc(Cl)cc1 the IC50 [10] was > 100 µM (inactive) and the IC50 [11] was 16.8 µM (active).

With CCn1c(S)nnc1-c1cccc(Br)c1 the IC50 [10] was > 100 µM (inactive), the IC50 [11] was 4.37 µM (active) and the IC50 [12] was > 122 µM (inactive).

With Cc1cc(NCC(=O)c2ccc(O)c(O)c2)[nH]n1 the IC50 [8] was 5.71 µM (active) and the IC50 [9] was 18.3 µM (active).

In the case of CC1(C)CC(=O)C(/C=N/c2cc(C(=O)c3ccccc3)ccc2N)=C(O)C1, the EC50 (Troponin, cardiac muscle) was 20.4 µM (inactive).

In the case of CCn1nnc(NC(=O)c2ccc([N+](=O)[O-])o2)n1, the EC50 [13] was 0.179 µM (active), the EC50 [14] was > 60 µM (inconclusive) and the IC50 (Exodeoxyribonuclease V) was > 118 µM (inactive). The CC50 [2] was 38.5 µM (active), the CC50 [3] was > 20 µM (active) and the CC50 [4] was 4.8 µM (active). The IC50 [5] was 61.7 µM (inactive).

For Cn1cccc1/C=C1\C(=O)NC(=O)N(Cc2ccccc2Cl)C1=O, the IC50 [15] was 0.978 µM (active).

In the case of O=C(Oc1ccccc1/C=C\C(=O)c1cc2ccccc2o1)c1ccccc1, the EC50 [16] was 15.4 µM (inactive).
